Assays:
[1] = tested on: UDP-glucuronosyltransferase gene (UGT1A1 gene); experiment: Expression promoting effect on UDP-glucuronosyltransferase gene in NB1-RGB cells (quantitative real-time PCR); format: cell-based, human; conditions: for expression promoting effect on UGT1A1 gene compared to dl-α-tocopherol acetate group (in words): compared to the group in which dl-α-tocopherol acetate was added; for Relative gene expression level UGT1A1: final concentration 0.2 μm, 72 hours, standardized to GAPDH, 50% ethanol control = 1.00
Description: (§1) Specifically, the NB1-RGB cells were prepared at a seeding density of 10,000 cells/cm^2, and were cultured for 24 hours in a DMEM medium containing 10% fetal bovine serum. […] In addition, one obtained by adding only 50% ethanol to the medium of cells was used as the control.
(§2) Next, all RNA was extracted from each cell, cDNA was synthesized, quantitative real-time PCR was performed using this cDNA as a template, and the expression levels of the HO-1 gene and UGT1A1 gene were quantified.

[2] = tested on: heme oxygenase gene (HO-1 gene); experiment: Expression promoting effect on heme oxygenase gene in NB1-RGB cells (quantitative real-time PCR); conditions: for expression promoting effect on HO-1 gene compared to dl-α-tocopherol acetate group (in words): compared to the group in which dl-α-tocopherol acetate was added; for Relative gene expression level HO-1: final concentration 0.2 μm, 72 hours, standardized to GAPDH, 50% ethanol control = 1.00
Description: as §1, §2

| Structure (SMILES) | expression promoting effect on UGT1A1 gene compared to the control (in words) [1] | expression promoting effect on UGT1A1 gene compared to dl-α-tocopherol acetate group (in words) [1] | Relative gene expression level UGT1A1 [1] | expression promoting effect on HO-1 gene compared to the control (in words) [2] | expression promoting effect on HO-1 gene compared to dl-α-tocopherol acetate group (in words) [2] | Relative gene expression level HO-1 [2] |
| --- | --- | --- | --- | --- | --- | --- |
| Cc1c(C)c2c(c(C)c1OP(=O)([O-])[O-])CCC(C)(CCCC(C)CCCC(C)CCCC(C)C)O2.[Na+].[Na+] (stereo not drawn) [sodium α-tocopheryl phosphate] | expression promoting effect | higher expression promoting effect | 59.11 | expression promoting effect | higher expression promoting effect | 1.40 |
| Cc1c(OP(=O)([O-])[O-])cc2c(c1C)O[C@](C)(CCC[C@H](C)CCC[C@H](C)CCCC(C)C)CC2.[Na+].[Na+] [sodium γ-tocopheryl phosphate] | expression promoting effect | higher expression promoting effect | 42.98 | expression promoting effect | higher expression promoting effect | 1.21 |
| CC(=O)Oc1c(C)c(C)c2c(c1C)CCC(C)(CCCC(C)CCCC(C)CCCC(C)C)O2 (racemic) [dl-α-tocopherol acetate, reference compound] |  |  | 34.84 |  |  | 0.97 |

Source: patent US20170143608A1, “SKIN COLOR-IMPROVING AGENT AND COMPOSITION FOR IMPROVING SKIN COLOR” (priority 2014, published 2017)
